{
  "source": "patent US8685949B2",
  "about": "“Use of 25-hydroxy vitamin D3 to improve vitality of animals” (DSM IP Assets B.V., priority 2005, dated 2014)",
  "key": {"[1]": {"tested_on": "replacement gilts (Landrace×Large White) / parity-one sows", "experiment": "Reproductive performance of parity-one sows fed 25-hydroxy-vitamin D3 (Experiment 1)", "type": "in vivo, pig", "source_text": "In a commercial pig farm a total of 27 six-month-old replacement gilts (Landrace×Large White) were selected. There were two dietary treatments in different stages of the reproductive cycle (replacement gilt development, gestation, lactation). The control diet was the standard farm diet without the supplementation of 25-hydroxy-vitamin D3. The experimental diet was the standard farm diet supplemented with 25-hydroxy-vitamin D3 at 50 mcg per kg diet.\nFourteen (14) gilts were randomly selected and assigned to the control group and the other 13 gilts to the ROVIMIX® Hy•D® 1.25% group. Breeding started when the gilts were 7 months old. They were placed in the gestating stalls after breeding and remained there until 14 days before the expected date of farrowing. They were then weighed and moved to the farrowing stalls. Piglets were weaned at 28 days of age.\n(§1) The following data were collected in the farrowing stalls in Experiments 1 and 2: • 1. Litter size at birth • a. Total pigs born • b. Pigs born alive • c. Stillborn pigs • d. Mummified fetuses • 2. Pig weight at birth • 3. Litter size at weaning • 4. Mortality • 5. Pig weight at weaning"}, "[2]": {"tested_on": "replacement gilts (Landrace×Large White) / parity-one sows", "experiment": "Reproductive performance of parity-one sows fed 25-hydroxy-vitamin D3 (Experiment 2)", "type": "in vivo, pig", "source_text": "In another commercial pig farm a total of 43 six-month-old replacement gilts (Landrace×Large White) were selected. There were two dietary treatments in different stages of the reproductive cycle (replacement gilt development, gestation, lactation). The control diet was the standard farm diet without the supplementation of 25-hydroxy-vitamin D3. The experimental diet was the standard farm diet supplemented with 25-hydroxy-vitamin D3 at 50 mcg per kg diet.\nTwenty-two (22) gilts were randomly selected and assigned to the control group and the other 21 gilts to the ROVIMIX® Hy•D® 1.25% group. Breeding started when the gilts were 7 months old. They were placed in the gestating stalls after breeding and remained there until 14 days before the expected date of farrowing. They were then weighed and moved to the farrowing stalls. Piglets were weaned at 28 days of age.\nas §1"}, "[3]": {"conditions": "50 mcg per kg diet, 28-day weaning"}},
  "data": [
    {"smiles": "C=C1CC[C@H](O)C/C1=C/C=C1\\CCC[C@]2(C)[C@@H]([C@H](C)CCCC(C)(C)O)CC[C@@H]12", "note": "[25-hydroxy-vitamin D3]", "values": [
      {"measurement": "BWT = Body weight of pigs at birth", "setting": "[1]; 50 mcg per kg diet", "value": 1.45, "unit": "kg"},
      {"measurement": "LSBA = Litter size of number of pigs born alive", "setting": "[1]; 50 mcg per kg diet", "value": 9.77},
      {"measurement": "LSW = Litter size of number of pigs weaned at 28-day weaning", "setting": "[1]; [3]", "value": 9.46},
      {"measurement": "Piglet weight gain at 28-day weaning", "setting": "[1]; birth to 28-day weaning, control 5.33 kg", "value": 5.5, "unit": "kg"},
      {"measurement": "Weaning weights compared with control", "setting": "[1]; result in words", "value": "not different from each other"},
      {"measurement": "LSBT = Litter size of total number of pigs at birth", "setting": "[1]; standard farm diet supplemented with 25-hydroxy-vitamin D3 at 50 mcg per kg diet, gilt development, gestation, lactation", "value": 10.46},
      {"measurement": "Difference in litter size at weaning vs. control", "setting": "[1]; treated minus control", "value": "+1.82"},
      {"measurement": "Difference in pigs born alive vs. control", "setting": "[1]; treated minus control", "value": "+1.84"},
      {"measurement": "Difference in total pigs born vs. control", "setting": "[1]; treated minus control", "value": "+1.46"},
      {"measurement": "LSBA = Litter size of number of pigs born alive", "setting": "[2]; 50 mcg per kg diet", "value": 9.62},
      {"measurement": "LSW = Litter size of number of pigs weaned at 28-day weaning", "setting": "[2]; [3]", "value": 8.48},
      {"measurement": "Difference in litter size at weaning vs. control", "setting": "[2]; treated minus control", "value": "+0.66"},
      {"measurement": "Difference in pigs born alive vs. control", "setting": "[2]; treated minus control", "value": "+0.44"}
    ]}
  ]
}
